Results taken from ChEMBL document CHEMBL4041522, “Comprehensive review on various strategies for antimalarial drug discovery” (2017).

Key:
Assay type in all cases: functional
Plasmodium [1] = assay: In vivo antiparasitic activity against Plasmodium sp. assessed as parasite clearance time
[2] = In vivo antiparasitic activity against Toxoplasma sp. assessed as parasite clearance time
[3] = In vivo antiparasitic activity against Babesia sp. assessed as parasite clearance time
[4] = In vivo antiparasitic activity against Pneumocystis sp. assessed as parasite clearance time
Plasmodium [5] = assay: In vivo antiparasitic activity against Plasmodium sp. assessed as fever clearance time
[6] = In vivo antiparasitic activity against Toxoplasma sp. assessed as fever clearance time
[7] = In vivo antiparasitic activity against Babesia sp. assessed as fever clearance time
[8] = In vivo antiparasitic activity against Pneumocystis sp. assessed as fever clearance time

CCC[C@@H]1C[C@@H](C(=O)N[C@@H]([C@H]2O[C@H](SC)[C@H](O)[C@@H](O)[C@H]2O)[C@H](C)Cl)N(C)C1 [CLINDAMYCIN]
Time (Plasmodium [1]): 4 to 6 days | Time [2]: 4 to 6 days | Time [3]: 4 to 6 days | Time [4]: 4 to 6 days | Time (Plasmodium [5]): 3 to 5 days | Time [6]: 3 to 5 days | Time [7]: 3 to 5 days | Time [8]: 3 to 5 days
